Data published in US4160839A, “Carbamyltriazole insecticides” (priority 1976, dated 1979).

How the values were obtained:
[1] = tested on: Mexican bean beetle (MBB) larvae; test: Spray test, Mexican bean beetle (MBB) larvae on bean leaves; assay type: in vivo; details: approx. 48 h after spraying
Description: (§1) Three 5 oz paper cups containing Henderson dwarf lima bean plants and one 5 oz paper cup containing Orange Gem nasturtiums, all growing in vermiculite, are placed on a turntable and sprayed to thorough wetness with 25 ml of a solution of the candidate chemical at the appropriate concentration. Nasturtiums were already infested with 50-100 bean aphids (BA). A bean plant in one paper cup was already infested with 50-100 two-spotted mites (TSM). Leaves from the two remaining bean plants are removed following spraying and placed in disposable petri dishes with 5 southern armyworm (SA) larvae in one petri dish, and 5 Mexican bean beetle (MBB) larvae in the other petri dish. The rating is done approximately 48 hours after spraying as follows:
(§2) So as to obtain more meaningful results, all tests are performed at the same time of day, whenever possible, usually in the forenoon. Temperature,illumination and humidity are the same in all tests. Atmospheric pressure is not controlled.
(§3) Results obtained with the novel insecticides of this invention at various concentrations of active chemical are tabulated below. The ratings given are for averages of three or more replicates. The oral lethal dose for 50 percent kill of laboratory rats is also recorded in the table. In conducting the toxicity tests on rats, 0.01 g of active chemical per ml in corn oil is employed as an additive to the diet of the animals.

bean aphids (BA) = test: Spray test, bean aphids (BA) on nasturtiums; assay type: in vivo; details: approx. 48 h after spraying
Description: as §1, §2, §3

two-spotted mites (TSM) = test: Spray test, two-spotted mites (TSM) on bean plants; assay type: in vivo; details: approx. 48 h after spraying
Description: as §1, §2, §3

[2] = tested on: Southern Corn Rootworm (SCR); test: Southern Corn Rootworm (SCR) soil treatment test, root feeding damage on corn; assay type: in vivo; set-up: scale not given here; details: nine days after treatment
Description: Three 5 oz paper cups planted each with one kernel of DeKalb XL-361 corn are treated two days after planting with 10 ml of a 125 ppm solution of the candidate compound. Compounds with high efficacy are treated at lower concentrations. The experiment is a 4×5 factorial in a randomized complete block design with three replications. The tests are evaluated nine days after treatment. The roots are inspected under a dissecting microscope and rated as follows:
as §2, §3

[3] = Oral toxicity test on laboratory rats; details: rat, in vivo, in corn oil as additive to the diet, read-out: LD50 (oral lethal dose for 50 percent kill of laboratory rats)
Description: as §3

[4] = tested on: southern armyworm (SA) larvae; test: Spray test, southern armyworm (SA) larvae on bean leaves; assay type: in vivo; details: approx. 48 h after spraying
Description: as §1, §2, §3

C=CCSc1nc(C2CC2)nn1C(=O)N(C)C [R=2-propenyl (allyl), R'=cyclopropyl]
MBB rating (larvae dead) ([1]; 15 ppm): 0 (no larvae dead) | MBB rating (larvae dead) ([1]; 31 ppm): 0 (no larvae dead) | MBB rating (larvae dead) ([1]; 62 ppm): 0 (no larvae dead) | MBB rating (larvae dead) ([1]; 125 ppm): 2 (26-50% larvae dead) | MBB rating (larvae dead) ([1]; 250 ppm): 5 (100% larvae dead) | MBB rating (larvae dead) ([1]; 500 ppm): 5 (100% larvae dead) | BA rating (dead) (bean aphids (BA); 2 ppm): 4 (76-99% dead) | BA rating (dead) (bean aphids (BA); 4 ppm): 5 (100% dead) | BA rating (dead) (bean aphids (BA); 8 ppm): 5 (100% dead) | BA rating (dead) (bean aphids (BA); 15 ppm): 5 (100% dead) | BA rating (dead) (bean aphids (BA); 31 ppm): 5 (100% dead) | BA rating (dead) (bean aphids (BA); 62 ppm): 5 (100% dead) | BA rating (dead) (bean aphids (BA); 125 ppm): 5 (100% dead) | BA rating (dead) (bean aphids (BA); 250 ppm): 5 (100% dead) | BA rating (dead) (bean aphids (BA); 500 ppm): 5 (100% dead) | TSM rating (dead adults) (two-spotted mites (TSM); 15 ppm): 0 (no dead adults) | TSM rating (dead adults) (two-spotted mites (TSM); 31 ppm): 0 (no dead adults) | TSM rating (dead adults) (two-spotted mites (TSM); 62 ppm): 3 (51-75% dead adults) | TSM rating (dead adults) (two-spotted mites (TSM); 125 ppm): 5 (100% dead adults) | TSM rating (dead adults) (two-spotted mites (TSM); 250 ppm): 5 (100% dead adults) | TSM rating (dead adults) (two-spotted mites (TSM); 500 ppm): 5 (100% dead adults) | SCR Rating (root feeding damage) ([2]; 3 ppm): 3.0 | SCR Rating (root feeding damage) ([2]; 6 ppm): 2.5 | SCR Rating (root feeding damage) ([2]; 12 ppm): 2.5 | SCR Rating (root feeding damage) ([2]; 25 ppm): 3.0 | SCR Rating (root feeding damage) ([2]; 50 ppm): 3.5 | LD50 [3]: 5 to 10 mg/kg | SA rating (larvae dead) ([4]; 15 ppm): 0 (no larvae dead) | SA rating (larvae dead) ([4]; 31 ppm): 0 (no larvae dead) | SA rating (larvae dead) ([4]; 62 ppm): 0 (no larvae dead) | SA rating (larvae dead) ([4]; 125 ppm): 0 (no larvae dead) | SA rating (larvae dead) ([4]; 250 ppm): 0 (no larvae dead) | SA rating (larvae dead) ([4]; 500 ppm): 5 (100% larvae dead)

C=CCSc1nc(C(C)C)nn1C(=O)N(C)C [R=2-propenyl (allyl), R'=isopropyl]
MBB rating (larvae dead) ([1]; 15 ppm): 0 (no larvae dead) | MBB rating (larvae dead) ([1]; 31 ppm): 0 (no larvae dead) | MBB rating (larvae dead) ([1]; 62 ppm): 2 (26-50% larvae dead) | MBB rating (larvae dead) ([1]; 125 ppm): 5 (100% larvae dead) | MBB rating (larvae dead) ([1]; 250 ppm): 5 (100% larvae dead) | MBB rating (larvae dead) ([1]; 500 ppm): 5 (100% larvae dead) | BA rating (dead) (bean aphids (BA); 2 ppm): 0 (none dead) | BA rating (dead) (bean aphids (BA); 4 ppm): 2 (26-50% dead) | BA rating (dead) (bean aphids (BA); 8 ppm): 4 (76-99% dead) | BA rating (dead) (bean aphids (BA); 15 ppm): 5 (100% dead) | BA rating (dead) (bean aphids (BA); 31 ppm): 5 (100% dead) | BA rating (dead) (bean aphids (BA); 62 ppm): 5 (100% dead) | BA rating (dead) (bean aphids (BA); 125 ppm): 5 (100% dead) | BA rating (dead) (bean aphids (BA); 250 ppm): 5 (100% dead) | BA rating (dead) (bean aphids (BA); 500 ppm): 5 (100% dead) | TSM rating (dead adults) (two-spotted mites (TSM); 500 ppm): 0 (no dead adults) | SCR Rating (root feeding damage) ([2]; 3 ppm): 3.5 | LD50 [3]: 10 to 50 mg/kg | SA rating (larvae dead) ([4]; 15 ppm): 0 (no larvae dead) | SA rating (larvae dead) ([4]; 31 ppm): 0 (no larvae dead) | SA rating (larvae dead) ([4]; 62 ppm): 0 (no larvae dead) | SA rating (larvae dead) ([4]; 125 ppm): 0 (no larvae dead) | SA rating (larvae dead) ([4]; 250 ppm): 0 (no larvae dead) | SA rating (larvae dead) ([4]; 500 ppm): 5 (100% larvae dead)

C=CCSc1nc(C(C)(C)C)nn1C(=O)N(C)C [R=2-propenyl (allyl), R'=tert.butyl, 1-Dimethylcarbamyl-3-tert.butyl-5-allylthio-1H-1,2,4-triazole]
MBB rating (larvae dead) ([1]; 15 ppm): 0 (no larvae dead) | MBB rating (larvae dead) ([1]; 31 ppm): 0 (no larvae dead) | MBB rating (larvae dead) ([1]; 62 ppm): 1 (1 -25% larvae dead) | MBB rating (larvae dead) ([1]; 125 ppm): 5 (100% larvae dead) | MBB rating (larvae dead) ([1]; 250 ppm): 5 (100% larvae dead) | MBB rating (larvae dead) ([1]; 500 ppm): 5 (100% larvae dead) | BA rating (dead) (bean aphids (BA); 2 ppm): 2 (26-50% dead) | BA rating (dead) (bean aphids (BA); 4 ppm): 3 (51-75% dead) | BA rating (dead) (bean aphids (BA); 8 ppm): 4 (76-99% dead) | BA rating (dead) (bean aphids (BA); 15 ppm): 5 (100% dead) | BA rating (dead) (bean aphids (BA); 31 ppm): 5 (100% dead) | BA rating (dead) (bean aphids (BA); 62 ppm): 5 (100% dead) | BA rating (dead) (bean aphids (BA); 125 ppm): 5 (100% dead) | BA rating (dead) (bean aphids (BA); 250 ppm): 5 (100% dead) | BA rating (dead) (bean aphids (BA); 500 ppm): 5 (100% dead) | TSM rating (dead adults) (two-spotted mites (TSM); 500 ppm): 0 (no dead adults) | SCR Rating (root feeding damage) ([2]; 25 ppm): 2.5 | LD50 [3]: 17 mg/kg | SA rating (larvae dead) ([4]; 500 ppm): 1 (1-25% larvae dead)

C#CCSc1nc(C2CC2)nn1C(=O)N(C)C [R=2-propynyl (propargyl), R'=cyclopropyl]
MBB rating (larvae dead) ([1]; 15 ppm): 1 (1 -25% larvae dead) | MBB rating (larvae dead) ([1]; 31 ppm): 1 (1 -25% larvae dead) | MBB rating (larvae dead) ([1]; 62 ppm): 3 (51-75% larvae dead) | MBB rating (larvae dead) ([1]; 125 ppm): 5 (100% larvae dead) | MBB rating (larvae dead) ([1]; 250 ppm): 5 (100% larvae dead) | MBB rating (larvae dead) ([1]; 500 ppm): 5 (100% larvae dead) | BA rating (dead) (bean aphids (BA); 2 ppm): 1 (1-25% dead) | BA rating (dead) (bean aphids (BA); 4 ppm): 3 (51-75% dead) | BA rating (dead) (bean aphids (BA); 8 ppm): 5 (100% dead) | BA rating (dead) (bean aphids (BA); 15 ppm): 5 (100% dead) | BA rating (dead) (bean aphids (BA); 31 ppm): 5 (100% dead) | BA rating (dead) (bean aphids (BA); 62 ppm): 5 (100% dead) | BA rating (dead) (bean aphids (BA); 125 ppm): 5 (100% dead) | BA rating (dead) (bean aphids (BA); 250 ppm): 5 (100% dead) | BA rating (dead) (bean aphids (BA); 500 ppm): 5 (100% dead) | TSM rating (dead adults) (two-spotted mites (TSM); 15 ppm): 0 (no dead adults) | TSM rating (dead adults) (two-spotted mites (TSM); 31 ppm): 0 (no dead adults) | TSM rating (dead adults) (two-spotted mites (TSM); 62 ppm): 2 (26-50% dead adults) | TSM rating (dead adults) (two-spotted mites (TSM); 125 ppm): 4 (76-99% dead adults) | TSM rating (dead adults) (two-spotted mites (TSM); 250 ppm): 4 (76-99% dead adults) | TSM rating (dead adults) (two-spotted mites (TSM); 500 ppm): 5 (100% dead adults) | SCR Rating (root feeding damage) ([2]; 25 ppm): 1.3 | SCR Rating (root feeding damage) ([2]; 50 ppm): 4.3 | SCR Rating (root feeding damage) ([2]; 100 ppm): 4.3 | LD50 [3]: 10 mg/kg | SA rating (larvae dead) ([4]; 15 ppm): 0 (no larvae dead) | SA rating (larvae dead) ([4]; 31 ppm): 0 (no larvae dead) | SA rating (larvae dead) ([4]; 62 ppm): 0 (no larvae dead) | SA rating (larvae dead) ([4]; 125 ppm): 2 (26-50% larvae dead) | SA rating (larvae dead) ([4]; 250 ppm): 4 (76-99% larvae dead) | SA rating (larvae dead) ([4]; 500 ppm): 5 (100% larvae dead)

C#CCSc1nc(C(C)C)nn1C(=O)N(C)C [R=2-propynyl, R'=isopropyl]
MBB rating (larvae dead) ([1]; 15 ppm): 0 (no larvae dead) | MBB rating (larvae dead) ([1]; 31 ppm): 4 (76-99% larvae dead) | MBB rating (larvae dead) ([1]; 62 ppm): 5 (100% larvae dead) | MBB rating (larvae dead) ([1]; 125 ppm): 5 (100% larvae dead) | MBB rating (larvae dead) ([1]; 250 ppm): 5 (100% larvae dead) | MBB rating (larvae dead) ([1]; 500 ppm): 5 (100% larvae dead) | BA rating (dead) (bean aphids (BA); 2 ppm): 0 (none dead) | BA rating (dead) (bean aphids (BA); 4 ppm): 3 (51-75% dead) | BA rating (dead) (bean aphids (BA); 15 ppm): 5 (100% dead) | BA rating (dead) (bean aphids (BA); 31 ppm): 5 (100% dead) | BA rating (dead) (bean aphids (BA); 125 ppm): 5 (100% dead) | BA rating (dead) (bean aphids (BA); 250 ppm): 5 (100% dead) | BA rating (dead) (bean aphids (BA); 500 ppm): 5 (100% dead) | TSM rating (dead adults) (two-spotted mites (TSM); 500 ppm): 0 (no dead adults) | SCR Rating (root feeding damage) ([2]; 12 ppm): 0.3 | SCR Rating (root feeding damage) ([2]; 25 ppm): 1.3 | SCR Rating (root feeding damage) ([2]; 50 ppm): 2.7 | LD50 [3]: ~50 mg/kg | SA rating (larvae dead) ([4]; 15 ppm): 0 (no larvae dead) | SA rating (larvae dead) ([4]; 31 ppm): 0 (no larvae dead) | SA rating (larvae dead) ([4]; 62 ppm): 0 (no larvae dead) | SA rating (larvae dead) ([4]; 125 ppm): 3 (51-75% larvae dead) | SA rating (larvae dead) ([4]; 250 ppm): 5 (100% larvae dead) | SA rating (larvae dead) ([4]; 500 ppm): 5 (100% larvae dead)
